Experimental findings from ChEMBL document CHEMBL1201862, “PubChem BioAssay data set” (2004) are described below.

In general, AC50 refers to the midpoint of the concentration-response curve, whichever way the signal moves. Usually CC50 stands for the concentration at which the toxic effect on the cells reaches its halfway point.

Assay [1] addresses T1, Corticotropin-releasing factor receptor 2/Corticotropin-releasing factor-binding protein (Homo sapiens, UniProt P24387+Q13324).
T1 sequence (Q13324 whole entry): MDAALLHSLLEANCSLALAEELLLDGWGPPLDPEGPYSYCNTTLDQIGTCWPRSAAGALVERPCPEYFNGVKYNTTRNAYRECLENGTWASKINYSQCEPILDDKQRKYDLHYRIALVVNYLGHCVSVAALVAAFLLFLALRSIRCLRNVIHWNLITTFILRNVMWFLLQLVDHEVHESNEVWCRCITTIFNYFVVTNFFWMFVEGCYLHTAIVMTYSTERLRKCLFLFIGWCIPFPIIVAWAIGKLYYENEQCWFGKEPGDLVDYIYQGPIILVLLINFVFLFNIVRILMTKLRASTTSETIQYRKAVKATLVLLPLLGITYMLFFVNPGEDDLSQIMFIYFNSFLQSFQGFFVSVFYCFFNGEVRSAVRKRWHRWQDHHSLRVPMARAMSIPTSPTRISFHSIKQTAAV
T1 sequence (P24387 whole entry): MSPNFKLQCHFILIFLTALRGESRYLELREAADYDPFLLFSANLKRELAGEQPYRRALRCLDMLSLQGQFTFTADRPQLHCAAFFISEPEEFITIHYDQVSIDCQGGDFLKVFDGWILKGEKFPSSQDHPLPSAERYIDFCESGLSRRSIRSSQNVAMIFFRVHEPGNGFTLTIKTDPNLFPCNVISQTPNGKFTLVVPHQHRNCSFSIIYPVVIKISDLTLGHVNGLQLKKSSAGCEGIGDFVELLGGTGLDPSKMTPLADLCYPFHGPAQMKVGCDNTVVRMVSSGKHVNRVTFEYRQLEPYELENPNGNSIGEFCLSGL
Briefly: Dose Response confirmation of uHTS hits for small molecule antagonists of the CRF-binding protein and CRF-R2 receptor complex. The class given is functional. Conditions: read-out: IC50_Mean.

The target of assay [2] is T1, Corticotropin-releasing factor receptor 2/Corticotropin-releasing factor-binding protein. Nature of the assay: activators of CRF receptor 2 with binding protein – uHTS hits, confirmation (AID 602473). It counts as functional. To be noted: read-out: EC50_Mean.
The subject of assay [3] is BJ. Nature of the assay: cytotoxicity toward BJ-TERT fibroblasts, dose response, cell-based, RAS-independent, luminescence (AID 1933). To be noted: Homo sapiens. The class given is functional.
Assay [4] relates to BJ. Nature of the assay: cells. Conditions: Homo sapiens. It counts as functional, cell-based.
Assay [5] deals with BJ. Briefly: cytotoxicity toward BJ-TERT-LT-ST fibroblasts, dose response, cell-based, RAS-independent, luminescence (AID 1935).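 Note: BJ fibroblasts immortalized with TERT plus LT and ST oncogenes.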 It counts as functional. To be noted: Homo sapiens.
The nature of assay [6]: cytotoxicity toward DRD oncogenic fibroblasts, dose response, cell-based, non-viral oncogenic, luminescence (AID 1934). The class given is functional. To be noted: Homo sapiens.
In a further assay the target is Large T antigen (Simian virus 40, UniProt P03070). The class given is functional, Betapolyomavirus macacae.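 Note: Confirmatory-stage PubChem screen for compounds that inhibit SV40 T antigen.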
Chain of Large T antigen (P03070 whole entry): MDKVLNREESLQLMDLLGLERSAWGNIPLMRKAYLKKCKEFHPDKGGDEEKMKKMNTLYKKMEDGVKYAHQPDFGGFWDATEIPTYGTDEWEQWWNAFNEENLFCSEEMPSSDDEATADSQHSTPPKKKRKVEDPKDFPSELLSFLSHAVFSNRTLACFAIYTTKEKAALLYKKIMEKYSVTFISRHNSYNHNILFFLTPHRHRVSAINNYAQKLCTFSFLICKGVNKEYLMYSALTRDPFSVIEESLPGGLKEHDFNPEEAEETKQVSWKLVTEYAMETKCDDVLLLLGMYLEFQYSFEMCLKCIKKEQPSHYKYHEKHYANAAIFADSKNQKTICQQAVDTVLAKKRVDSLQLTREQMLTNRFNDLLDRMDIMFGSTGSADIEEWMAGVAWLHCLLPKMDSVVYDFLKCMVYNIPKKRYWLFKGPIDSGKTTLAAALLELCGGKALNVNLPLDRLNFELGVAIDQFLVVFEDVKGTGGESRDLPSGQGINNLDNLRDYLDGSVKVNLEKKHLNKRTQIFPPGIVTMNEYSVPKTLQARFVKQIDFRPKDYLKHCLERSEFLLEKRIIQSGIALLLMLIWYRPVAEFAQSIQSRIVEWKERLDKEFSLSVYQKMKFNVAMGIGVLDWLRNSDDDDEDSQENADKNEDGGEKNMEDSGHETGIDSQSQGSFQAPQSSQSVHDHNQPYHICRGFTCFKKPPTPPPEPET
In assay [7] the target is FAD-linked sulfhydryl oxidase ALR (Homo sapiens, UniProt P55789). Briefly: inhibitors of human ALR sulfhydryl oxidase, dose response, biochemical, H2O2 detection, luminescence, cherry-pick (AID 493248).
Chain of FAD-linked sulfhydryl oxidase ALR (P55789 whole entry): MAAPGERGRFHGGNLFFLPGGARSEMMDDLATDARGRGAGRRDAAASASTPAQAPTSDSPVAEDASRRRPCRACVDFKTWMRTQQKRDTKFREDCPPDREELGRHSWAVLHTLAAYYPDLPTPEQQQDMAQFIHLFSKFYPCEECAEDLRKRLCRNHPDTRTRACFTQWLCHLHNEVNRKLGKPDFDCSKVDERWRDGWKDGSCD
A short description of assay [8]: HEp-2 cell cytotoxicity, dose response, cytotoxicity control for RSV inhibitor project, HTS (AID 2410). It counts as functional. To be noted: human respiratory syncytial virus.
For a further assay, the target named is Genome polyprotein (dengue virus type 2, UniProt P29990). Nature of the assay: Dengue-2 NS5 methyltransferase inhibitors, primary screen, biochemical, confirmation dose response (AID 588689). The class given is functional.
Chain of Genome polyprotein (P29990 2492-3391 limits assumed): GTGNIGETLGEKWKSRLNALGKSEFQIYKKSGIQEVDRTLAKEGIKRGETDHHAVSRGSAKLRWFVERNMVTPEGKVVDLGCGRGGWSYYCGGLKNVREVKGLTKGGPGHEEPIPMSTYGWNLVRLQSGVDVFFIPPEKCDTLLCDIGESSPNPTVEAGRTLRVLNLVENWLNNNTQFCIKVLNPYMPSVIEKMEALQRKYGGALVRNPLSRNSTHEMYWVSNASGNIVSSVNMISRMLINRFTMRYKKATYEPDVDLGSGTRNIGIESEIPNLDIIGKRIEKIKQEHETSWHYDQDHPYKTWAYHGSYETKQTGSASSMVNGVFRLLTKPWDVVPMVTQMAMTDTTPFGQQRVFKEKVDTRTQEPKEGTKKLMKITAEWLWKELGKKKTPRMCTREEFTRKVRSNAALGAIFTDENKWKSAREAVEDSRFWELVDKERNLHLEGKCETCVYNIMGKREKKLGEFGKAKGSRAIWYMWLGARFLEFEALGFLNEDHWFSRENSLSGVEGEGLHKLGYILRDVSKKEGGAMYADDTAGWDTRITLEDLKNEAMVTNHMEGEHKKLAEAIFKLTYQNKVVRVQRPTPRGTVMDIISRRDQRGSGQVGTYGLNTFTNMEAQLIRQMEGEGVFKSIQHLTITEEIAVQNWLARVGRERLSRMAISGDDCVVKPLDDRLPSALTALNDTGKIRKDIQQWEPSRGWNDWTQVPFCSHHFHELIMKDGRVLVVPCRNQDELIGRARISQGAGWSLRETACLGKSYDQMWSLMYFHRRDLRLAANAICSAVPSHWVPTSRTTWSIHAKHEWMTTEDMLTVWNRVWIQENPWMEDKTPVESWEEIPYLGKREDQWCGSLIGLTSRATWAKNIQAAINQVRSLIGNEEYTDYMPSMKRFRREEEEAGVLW
Assay [9] has as its target T2, Rac GTPase-activating protein 1 (Homo sapiens, UniProt Q9H0H5).
T2 sequence (Q9H0H5 whole entry): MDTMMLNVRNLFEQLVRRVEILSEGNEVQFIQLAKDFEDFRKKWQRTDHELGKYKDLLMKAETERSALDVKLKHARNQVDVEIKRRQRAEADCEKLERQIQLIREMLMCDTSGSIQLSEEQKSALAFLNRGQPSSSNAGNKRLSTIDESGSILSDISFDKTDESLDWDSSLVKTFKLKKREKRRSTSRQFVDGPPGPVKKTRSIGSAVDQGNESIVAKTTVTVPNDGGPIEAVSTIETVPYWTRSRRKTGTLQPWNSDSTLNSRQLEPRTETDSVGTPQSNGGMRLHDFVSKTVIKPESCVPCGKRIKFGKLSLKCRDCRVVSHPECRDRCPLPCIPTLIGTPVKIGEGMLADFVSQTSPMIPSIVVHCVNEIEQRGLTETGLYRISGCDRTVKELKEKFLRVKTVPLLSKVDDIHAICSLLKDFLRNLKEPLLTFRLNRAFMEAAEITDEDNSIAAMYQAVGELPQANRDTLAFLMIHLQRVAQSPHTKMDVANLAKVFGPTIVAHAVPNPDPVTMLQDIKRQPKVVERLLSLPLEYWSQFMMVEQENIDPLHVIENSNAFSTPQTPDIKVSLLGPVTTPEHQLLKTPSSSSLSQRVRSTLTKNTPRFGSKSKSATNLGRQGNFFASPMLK
Briefly: MgcRacGAP GTPase-activating activity inhibitors, confirmation, biochemical, ADP Hunter fluorescence, primary and confirmatory (AID 624330). It counts as functional.

For assay [10], the target named is T3, Replicative DNA helicase DnaB (Mycobacterium tuberculosis, UniProt P9WMR3).
T3 sequence (P9WMR3 whole entry): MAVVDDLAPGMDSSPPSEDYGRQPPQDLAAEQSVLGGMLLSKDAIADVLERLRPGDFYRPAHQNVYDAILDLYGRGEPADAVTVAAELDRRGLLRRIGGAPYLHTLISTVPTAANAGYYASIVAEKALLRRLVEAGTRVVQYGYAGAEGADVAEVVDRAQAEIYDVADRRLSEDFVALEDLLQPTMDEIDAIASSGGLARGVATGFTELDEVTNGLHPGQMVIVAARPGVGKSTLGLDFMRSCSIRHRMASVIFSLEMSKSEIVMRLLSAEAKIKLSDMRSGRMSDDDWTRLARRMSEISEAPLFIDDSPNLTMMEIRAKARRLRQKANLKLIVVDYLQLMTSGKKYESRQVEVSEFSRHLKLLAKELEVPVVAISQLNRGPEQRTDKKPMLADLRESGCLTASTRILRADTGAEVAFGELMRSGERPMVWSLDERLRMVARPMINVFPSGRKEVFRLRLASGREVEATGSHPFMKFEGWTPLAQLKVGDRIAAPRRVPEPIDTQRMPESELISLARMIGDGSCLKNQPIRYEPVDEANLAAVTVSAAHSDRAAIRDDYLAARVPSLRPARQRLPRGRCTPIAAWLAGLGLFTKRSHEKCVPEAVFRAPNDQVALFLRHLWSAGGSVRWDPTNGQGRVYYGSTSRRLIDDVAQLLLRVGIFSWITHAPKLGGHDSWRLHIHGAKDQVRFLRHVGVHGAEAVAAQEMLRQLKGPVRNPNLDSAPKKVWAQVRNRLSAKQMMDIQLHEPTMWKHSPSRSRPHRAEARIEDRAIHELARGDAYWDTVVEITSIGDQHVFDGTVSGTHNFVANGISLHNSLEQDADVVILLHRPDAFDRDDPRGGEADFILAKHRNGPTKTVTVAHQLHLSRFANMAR
Briefly: DnaB intein splicing inhibitors, dose response, biochemical, cell-free fluorescence (AID 449749). The class given is functional.

A further assay addresses T4, Protein RecA (Mycobacterium tuberculosis, UniProt P9WHJ3).
T4 sequence (P9WHJ3 whole entry): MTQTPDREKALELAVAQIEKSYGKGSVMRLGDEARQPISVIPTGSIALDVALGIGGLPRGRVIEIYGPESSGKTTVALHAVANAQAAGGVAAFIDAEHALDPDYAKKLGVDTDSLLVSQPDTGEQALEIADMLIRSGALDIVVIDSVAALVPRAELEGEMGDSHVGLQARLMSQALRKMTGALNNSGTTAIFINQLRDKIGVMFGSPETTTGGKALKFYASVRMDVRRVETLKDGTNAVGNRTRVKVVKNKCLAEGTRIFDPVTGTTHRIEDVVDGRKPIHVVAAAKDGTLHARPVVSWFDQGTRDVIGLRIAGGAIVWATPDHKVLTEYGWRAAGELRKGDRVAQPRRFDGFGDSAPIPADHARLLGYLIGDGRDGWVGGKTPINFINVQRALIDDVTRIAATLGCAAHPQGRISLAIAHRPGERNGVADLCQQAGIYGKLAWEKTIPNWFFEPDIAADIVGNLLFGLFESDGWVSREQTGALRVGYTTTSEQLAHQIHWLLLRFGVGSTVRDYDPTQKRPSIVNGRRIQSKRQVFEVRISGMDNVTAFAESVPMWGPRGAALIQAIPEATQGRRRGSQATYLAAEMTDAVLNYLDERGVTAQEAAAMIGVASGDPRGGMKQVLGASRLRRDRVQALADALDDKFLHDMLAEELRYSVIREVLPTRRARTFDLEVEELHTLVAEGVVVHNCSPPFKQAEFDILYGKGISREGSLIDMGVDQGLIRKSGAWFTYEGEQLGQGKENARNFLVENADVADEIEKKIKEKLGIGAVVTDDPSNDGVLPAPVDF
Briefly: Fluorescence Cell-Free Homogeneous Dose Retest to Identify Inhibitors of RecA-Intein Splicing Activity. [Related pubchem assays (depositor defined):AID2097, AID2223, AID489010, AID492950]. The class given is functional.

Active and inactive are the calls of the source.

For `COC(CNc1ncnc2c1cnn2C)OC`, the IC50 in [1] is > 47.1 µM (inactive). The EC50 in assay [2] was > 53 µM (inactive).
Regarding `Cc1ccsc1C(=O)N/N=C/c1ccc2c(c1)OCO2`, the EC50 in the assay with BJ [3] was 15.4 µM (active); in the assay on BJ [4], 11.6 µM (inconclusive); with BJ [5], > 150 µM (inconclusive); in assay [6] it was 9.95 µM (inconclusive).
As for `COc1cc(/C=N/NC(=O)c2cc(C3CC3)[nH]n2)ccc1O`, the IC50 at Large T antigen was 7.28 µM (active). Further, the AC50 in [7] was 1.74 µM (active).
For `CC/N=c1\scc(C)n1/N=C/c1cc(Br)c(O)c(Br)c1`, the CC50 in assay [8] was 13.3 µM (active). Further, the IC50 at Large T antigen is 21.6 µM (active).
Take `CN(C)c1ccc(C(=O)c2ccccc2C(=O)O)cc1[N+](=O)[O-]`: the EC50 in the assay with BJ [3] was > 150 µM (not active); with BJ [4] it was > 150 µM (not active); with BJ [5], > 150 µM (not active); in [6], 102 µM (active).
For `CCOC(=O)C1C(C)=CC(=O)CC1c1ccco1` (stereo not given), the IC50 in assay [1] was > 47.1 µM (inactive). Moreover, the EC50 in assay [2] is > 53 µM (inactive).
Turning to `COc1ccc(NC(=O)CCCC2CCCCC2)cc1S(=O)(=O)N1CCCCC1`, the IC50 in assay [1] was > 47.1 µM (inactive). Besides, the EC50 in [2] is > 53 µM (inactive).
`COc1ccc(C2=NN=C(c3ccco3)Nc3ccc(F)cc32)cc1`: the IC50 in assay [1] was > 47.1 µM (inactive). The EC50 in [2] is > 53 µM (inactive).
For `Cc1n[nH]c(O)c1C(c1ccc(-c2ccc(Cl)c(C(=O)O)c2)o1)c1c(O)n[nH]c1C`, the IC50 at Genome polyprotein is > 100 µM (active).
With `CN(CC1CCOCC1)C(=O)CC1C(=O)NCCN1Cc1ccc(Cl)c(F)c1` (stereo not given), the IC50 in assay [1] is > 47.1 µM (inactive). The EC50 in assay [2] is > 53 µM (inactive).
Turning to `COc1cccc(/C=C2\SC(=S)N(C(Cc3ccccc3)C(=O)O)C2=O)c1` (stereo not given), the IC50 on Genome polyprotein was 44.4 µM (active).
`COc1ccccc1/C=C1/C(=O)ON=C1C`: on Genome polyprotein, the IC50 was > 100 µM (active).
For the compound `CC(SC1=NCCS1)C(=O)Nc1nnc(-c2ccc(Br)cc2)s1` (stereo not given), in assay [1], the IC50 was > 47.1 µM (inactive). For the same compound, in [2], the EC50 is > 53 µM (inactive).
Consider `COc1cc(/C=N/NC(=O)c2cccc(S(=O)(=O)N3CCCC3)c2)ccc1O`, for which the IC50 on Large T antigen was 9.24 µM (active). Also, the AC50 in assay [7] was 1.79 µM (active).
Regarding `CCOc1ccc(NCc2cccn2-c2nnc(N3CCC(C(=O)NCCCN4CCCCC4CC)CC3)s2)cc1` (stereo not given), the IC50 at Large T antigen is 11.7 µM (active).
As for `COc1cc(/C=C2\SC(Nc3ccc(Cl)c(C(=O)O)c3)=NC2=O)c(Br)c(Br)c1O`, the IC50 at Large T antigen is 3.27 µM (active); in assay [9], 13.9 µM (active).
`CCN(c1ccccc1)S(=O)(=O)c1ccc(NC(=O)c2ccco2)cc1`: the IC50 in assay [1] was > 47.1 µM (inactive). Further, the EC50 in [2] was > 53 µM (inactive).
On to `Cc1cc(C(C2C(=O)CC(C)(C)CC2=O)C2C(=O)CC(C)(C)CC2=O)cc(C)c1OC(F)F`, for which, at Genome polyprotein, the IC50 was 43.5 µM (active).
Turning to `C/C(=N\Nc1cc(C)nc(-c2ccccc2)n1)c1cccc([N+](=O)[O-])c1`, in assay [1], the IC50 was > 47.1 µM (inactive). Besides, the EC50 in assay [2] was > 53 µM (inactive).
Take `CC1=NN(c2ccccc2)C(=O)/C1=C/c1cccs1`: the AC50 in assay [10] is 4.26 µM (active). The EC50 at Protein RecA was 4.53 µM (active). Also, the IC50 on Genome polyprotein was 46.8 µM (active).
